The values below come from US12263153B2, “Pharmaceutical composition, methods for treating and uses thereof” (Boehringer Ingelheim International GmbH, priority 2016, dated 2025).

The conditions of data set [1]: human, in vivo; cited from earlier work.
Data set [2] can be described thus: blood pressure, heart rate and sympathetic activation under empagliflozin treatment. The data set is classed as in vivo. Particulars: treatment with empagliflozin. The source says: It may be assumed that altered glucose and sodium gradients within the kidney may generate a sympathoinhibitory afferent renal nerve signal. The lack of sympathetic activation may contribute to a beneficial cardiovascular and renal profile of empagliflozin (cardiorenal axis). Based on clinical and non-clinical studies including mechanistic considerations, such as the effect of empagliflozin on human autonomic cardiovascular regulation, the use of empagliflozin in the treatment, prevention or slowing the progression of certain diseases and conditions or reducing the risk thereof, in particular chronic kidney disease and cardiovascular death in certain patients, is described hereinbefore and hereinafter.

For data set [3] the following is noted: patients with type 2 diabetes mellitus and high cardiovascular risk; cited from earlier work.

On to `OC[C@H]1O[C@@H](c2ccc(Cl)c(Cc3ccc(O[C@H]4CCOC4)cc3)c2)[C@H](O)[C@@H](O)[C@@H]1O` [empagliflozin, 1-chloro-4-(β-D-glucopyranos-1-yl)-2-[4-((S)-tetrahydrofuran-3-yloxy)-benzyl]-benzene], for which, in data set [1], the arterial stiffness result was “reduced arterial stiffness”, the direct vascular effects entry was “direct vascular effects” and the diuretic effect result is “shows a diuretic effect”. In addition, the heart rate entry in data set [2] was “without clinically relevant changes”. For the same compound, in data set [3], the “risk of cardiovascular death” value was “reduced the risk” and the “risk of overall mortality” value is reported as “reduced the risk”.
